Test results reported in patent US20260132128A1, “COMPOUND FOR RECOVERING P53 MUTATION FUNCTION AND USE THEREOF” (SHENZHEN ZHONGGE BIOLOGICAL TECHNOLOGY CO., LTD., priority 2022, published 2026).
Read-outs that look alike come from different tables or passages of the source. Marks after values point to notes of the source that are not given here.

Legend:
[1] = Liver microsome stability test, human (HLM); type: in vitro ADME; conditions: human liver microsomes, NADPH; read-out: T1/2 (min) Human
Description: (§1) The 10 mM test compound/ketanserin (Energy Chemical, Cat. No. E020711) stock solution was diluted with acetonitrile to 0.5 mM compound/reference compound. The frozen 100 mM NADPH (MCE, Cat. No. HYF003/CS-4998) was diluted with phosphate buffer solution to a concentration of 6 mM; 20 mg/mL HLM (BioIVT, Cat. No. X008067) or MLM (BioIVT, Cat. No. M00501) was diluted with phosphate buffer solution to a concentration of 0.75 mg/ml, and added to a 96-round well plate, respectively, and shaken evenly on an oscillator at 600 rpm. The above oscillated samples were pipetted 3 times with an electric pipettor and dispensed into a new 96-well plate (containing NADPH group (n=2), NADPH-free group was added at 0 and 45 min (n=1)), and there were a total of 5 groups of 0, 5, 15, 30 and 45 min, respectively. After pre-incubation of the 5 groups of samples at 37° C. for 5 min, glacial acetonitrile was quickly added to the 0 min group for precipitation, and after rapid vortexing, K-Buffer or NADPH was added with an electric pipettor. The remaining groups were sequentially added with 6 mM NADPH to start the reaction in the order of 45, 30, 15 and 5 min samples, and K-Buffer solution was added to the NADPH-free group. After mixing at 1000 rpm in an oscillating mixer for 10 s, they were continuously incubated at 37° C. for the corresponding time. The reaction was terminated by quickly adding glacial acetonitrile internal standard using an electric pipettor; after vortexing at 900 rpm for 10 seconds, heat sealing was performed, oscillation was performed on an oscillator for 10 minutes, centrifugation was performed at 4000 rpm for 50 minutes, the supernatant was collected and diluted with pure water, and the test compound and the reference compound were quantified by LC-MS/MS analysis.

[2] = system: NUGC-3 cells; experiment: NUGC-3 cell proliferation assay (CTG); type: cell-based, human; conditions: for GI50: Homo sapiens, NUGC-3, 144 h, 6 days, CTG; for Compound GI50 (nM)/Reference compound GI50 (nM): multiple ratio of GI50 of the compound to the reference compound
Summary of the method: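 GI50 derived by variable-slope regression of percent inhibition (normalized to blank and 0.1% DMSO controls) from CTG luminescence. Compound was given as 10 threefold dilutions, highest final 10 μM, to overnight-seeded NUGC-3 cells (250/well) for 6 days, 37° C, 5% CO2.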

[3] = Liver microsome stability test, mouse (MLM); type: in vitro ADME; conditions: mouse liver microsomes, NADPH; read-out: T1/2 (min) Mouse
Description: as §1

[4] = molecular target: T1, p53 Y220C (Homo sapiens, UniProt P04637, Y220C); experiment: DNA binding test (HTRF): binding of P53Y220C protein to DNA; type: biochemical; conditions: multiple ratio of EC50 of the compound to the reference compound, DNA binding test
T1 construct: a truncated mutant containing only amino acids 94-312 of p53; made in house; host or cells: E. coli

[5] = molecular target: T2, p53 Y220C (Homo sapiens, UniProt P04637, P309S/R273H/Y220C); experiment: as above; type: biochemical; conditions: HTRF, activation of p53 Y220C (aa 94-312) binding to biotin DNA
T2 construct: a truncated mutant containing only amino acids 94-312 of p53; made in house; host or cells: E. coli

[6] = system: BxPC-3 cells; experiment: BxPC-3 cell proliferation test (CTG); type: cell-based; conditions: Homo sapiens, 144 h, 6 days
Description: To detect the inhibitory effects of the aforementioned compounds on the proliferation ability of BxPC-3 cells, 125 BxPC-3 cells (ATCC®CRL-1687) were seeded into a 384-well plate (Corning 3765), 35 μL per well, and placed in a constant temperature incubator at 37° C. and 5% CO2 overnight. Then, 40 nL of the compound was added to the 384-well plate using an Echo 655 Liquid Handler, with a maximum final concentration of 10 μM, 1:3 serial dilution, and in a total of 10 doses. Incubation was performed at 37° C., 5% CO2 for 6 days. The plate was taken out from the incubator and equilibrated at room temperature for 10 minutes. 20 μL of CTG (Promage G7572) was added to each well of the plate according to the platemap. The plate was centrifuged at 1000 rpm for 1 minute. The lysis of cells was induced by mixing on a shaker for 2 minutes. The plate was centrifuged at 1000 rpm for 1 minute. Incubation was performed at room temperature for 10 minutes to stabilize luminescence signals. Luminescence values were recorded by Envision (PerkinElmer 2105-0020). GraphPad 9.0 was used to fit the inhibition rate and compound concentration into a nonlinear regression curve (dose response-variable slope) to calculate GI50, inhibition rate={1−(A−B)/(C−B)}*100%, A=signal value of compound; B=average signal of blank control; C=average signal of negative control (wherein the negative control was 0.1% DMSO).

[7] = Pharmacokinetic test in mice; type: in vivo; conditions: male, ICR, mouse, plasma
Description: ICR male mice (15 to 35 g, 5 to 10 weeks old, Shanghai Xipuer-Bikai Experimental Animal Co., Ltd.) were selected as test animals in this study. The LC-MS/MS method was used to quantitatively determine drug concentrations in the plasma of mice at different time points after intravenous injection or oral gavage administration of the test compound to evaluate the pharmacokinetic characteristics of the compound in mice. The clear solution of the test compound was injected into ICR mice via the tail vein (without fasting, solvent: 40% hydroxypropyl-β-cyclodextrin) and administered to ICR mice by oral gavage (fasting for 10 to 14 hours, free drinking water, solvent: 0.2% hydroxypropyl cellulose, 0.5% Tween 80). For intravenous administration, blood was collected from the submandibular venous plexus at 0.033, 0.083, 0.25, 0.5, 1, 2, 4, 8, and 24 hours after administration, placed in an anticoagulant tube with EDTA-K2 (Jiangsu Kangjian Medical Supplies Co., Ltd.), mixed, and centrifuged at 2-8° C., 6800 g for 6 minutes to obtain plasma; for oral gavage administration, blood was collected from the submandibular venous plexus at 0.083, 0.25, 0.5, 1, 2, 4, 6, 8, and 24 hours after administration, placed in an anticoagulant tube with EDTA-K2 (Jiangsu Kangjian Medical Supplies Co., Ltd.), mixed, and centrifuged at 2-8° C., 6800 g for 6 minutes to obtain plasma. The blood drug concentration was determined by LC-MS/MS, and the relevant pharmacokinetic parameters were calculated by the non-compartmental linear logarithmic trapezoidal method using Phoenix WinNonlin™ Version 7.0 (Pharsight, USA) pharmacokinetic software.

[8] = molecular target: T3, CYP 3A4 (Homo sapiens, UniProt P08684); experiment: CYP 3A4 time-dependent inhibition test; type: in vitro ADME; conditions: midazolam substrate
T3 construct: purchased BioIVT X008067
Description: CYP 3A4 and the test compound or mifepristone of various concentrations were added to a 96-deep well plate for pre-incubation. The plate was placed in a water bath and preheated at 37° C. for 5 min. For the 0 min pre-incubation samples, midazolam substrate was added to the incubation plate, then 10 mM NADPH solution was added, and the reaction was carried out in a 37° C. water bath for 5 min; for the 30 min pre-incubation samples with NADPH, 10 mM NADPH solution was added to the incubation plate, pre-incubated in a 37° C. water bath for 30 min, and then midazolam substrate was added and reacted in a 37° C. water bath for 5 min; for the 30 min pre-incubation samples without NADPH, the incubation plate was pre-incubated in a 37° C. water bath for 30 min, then midazolam substrate was added, 10 mM NADPH solution was added, and the reaction was carried out in a 37° C. water bath for 5 min. After the reaction was completed, the quenching solution (500 nM tolbutamide (Bide Pharmaceuticals, Cat. No. BD154332) and 10 nM terfenadine (Sigma, Cat. No. T96532)) were added to quench the reaction, and the plate was centrifuged at 3,220 g for 40 min at 4° C. The supernatant was pipetted into a new plate, the supernatant was diluted with pure water and mixed well, and the sample was analyzed using UPLC-MS/MS.

[9] = system: Caco-2 cells; experiment: Caco-2 cell permeability test; type: in vitro ADME; conditions: Caco-2, 10 μM, 120 min
Description: Caco-2 cells (ATCC, Cat. No. HTB-37) were inoculated to a 96-well plate (Corning HTS Transwell, Cat. No. 3391) at 1.25×10^5/cm2, and the culture medium (DMEM+10% FBS+1% Penicillin-Streptomycin Liquid (100×)+1% NEAA) was replaced every 3 to 4 days. The plate was placed in an incubator at 37° C. with 5% CO2 until a confluent cell monolayer was formed after 21 to 28 days. Before the transport experiment, the culture medium was removed from the cell culture plate, and the plate was washed twice with pre-warmed HBSS buffer (10 mM HEPES, pH 7.4), and 100 μL of HBSS buffer was added to each well. After incubation at 37° C. for 30 minutes, the TEER value was measured using a cell resistance meter (Millicell-ERS2) to confirm the integrity and density of the monolayer cells. The HBSS buffer was discarded, the upper plate containing the cell monolayer membrane was transferred to the corresponding receiving plate, 10 mM test compound stock solution was diluted to a concentration of 10 μM with HBSS transport buffer containing 0.5% BSA, and it was added to the apical side (A side) and basolateral side (B side), respectively. Incubation was carried out for 120 min at 37° C., 5% CO2, and 95% relative humidity, and the permeation of the test compound from A side to B side or from B side to A side and the efflux rate of the compound were determined. The test compound and the reference compound were quantified by LC-MS/MS analysis based on the peak area ratio of analyte/internal standard. The apparent permeability coefficient Papp (cm/s) was calculated using the following formula:
[formula] • wherein, dCr/dt represented the functional relation between cumulative concentration of compound in receptor compartment and time; V represented the volume of solution in receptor compartment (0.1 mL at apical side, and 0.25 mL at basolateral side); A represented the transport surface area, i.e., the monolayer cell area was 0.0804 cm^2; CO represented the initial concentration of compound in donor compartment.
The efflux ratio was calculated using the following formula: […]
The percent recovery was calculated using the following formula:
[formula] [formula] • wherein, Vd represented the volume of donor compartment (0.1 mL on the apical side and 0.25 mL on the basolateral side); C and Cr represented the final concentrations of the transported compound in the donor and receptor compartment, respectively; Cc represented the compound concentration in cell lysate; Vc represented the volume of insert well (which was 0.1 mL in this experiment).

[10] = 0 min pre-incubation, read-out: IC50 (μM) 0 min
[11] = 30 min pre-incubation with NADPH, read-out: IC50 (μM) 30 min, with NADPH
[12] = 30 min pre-incubation without NADPH, read-out: IC50 (μM) 30 min, without NADPH

T3 sequence (P08684 whole entry): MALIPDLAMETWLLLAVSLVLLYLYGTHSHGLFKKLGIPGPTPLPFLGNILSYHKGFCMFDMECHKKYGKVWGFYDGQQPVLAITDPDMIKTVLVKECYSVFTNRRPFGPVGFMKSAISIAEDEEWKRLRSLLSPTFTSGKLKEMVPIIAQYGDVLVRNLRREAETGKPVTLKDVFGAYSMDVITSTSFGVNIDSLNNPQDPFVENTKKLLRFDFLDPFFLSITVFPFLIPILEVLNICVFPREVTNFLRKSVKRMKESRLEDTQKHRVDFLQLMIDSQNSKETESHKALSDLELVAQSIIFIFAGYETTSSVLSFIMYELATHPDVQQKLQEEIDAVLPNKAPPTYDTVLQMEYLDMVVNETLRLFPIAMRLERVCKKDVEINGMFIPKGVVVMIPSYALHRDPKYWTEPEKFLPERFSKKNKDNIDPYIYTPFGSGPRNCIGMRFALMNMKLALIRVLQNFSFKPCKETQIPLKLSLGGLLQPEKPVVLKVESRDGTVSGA

half-life [1] | half-life [3] | EC50 [5] | GI50 [6] | AUC ([7]; 25 mg/kg, po 25 mpk) | Cmax ([7]; 25 mg/kg, po 25 mpk) | clearance ([7]; 2.5 mg/kg, iv 2.5 mpk) | IC50 [8, 10] | IC50 [8, 11] | IC50 [8, 12] | Efflux Ratio [9] | Papp A to B ([9]; A to B) | Papp B to A ([9]; B to A) | SMILES | GI50 [2] | Compound GI50 (nM)/Reference compound GI50 (nM) [2] | Compound EC50 (nM)/Reference compound EC50 (nM) [4]
65.3 min | 16.9 min | < 100 nM | < 1000 nM | – | – | – | – | – | – | – | – | – | CNC(=O)c1ccc(NCC#Cc2cc3c(NC4CCC(N5CC6(COC6)C5)CC4F)cccn3c2CC(F)(F)F)c(OC)c1 (single isomer, unassigned) [Compound 65d] | < 1000 nM | B (B: GI50 of the reference compound < GI50 of the compound ≤ 3.0 * GI50 of the reference compound) | B (B: EC50 of the reference compound<EC50 of the compound≤3.0*EC50 of the reference compound)
– | – | < 100 nM | – | 59700 ng·h/mL | 13100 ng/mL | 11 mL/min/kg | 5.95 µM | 1.91 µM | 6.65 µM | – | – | – | [2H]C([2H])([2H])NC(=O)c1ccc(NCC#Cc2nc3c(NC4CCC(N5CCOCC5)CC4F)cccn3c2CC(F)(F)F)c(OC([2H])([2H])[2H])c1 (single isomer, unassigned) [Compound 70d] | < 1000 nM | A (A: GI50 of the compound ≤ GI50 of the reference compound) | A (A: EC50 of the compound≤EC50 of the reference compound)
– | – | – | – | – | – | – | – | – | – | 2.58 | 2.50 10^−6 cm/s | 6.43 10^−6 cm/s | COc1cc(S(C)(=O)=O)ccc1NCC#Cc1nc2c(NC3CC[C@@H](N4CC5(COC5)C4)C[C@@H]3F)cccn2c1CC(F)(F)F (stereo partly drawn) [Compound 48] | – | B (B: GI50 of the reference compound < GI50 of the compound ≤ 3.0 * GI50 of the reference compound) | B (B: EC50 of the reference compound<EC50 of the compound≤3.0*EC50 of the reference compound)
24.9 min | 17.1 min | – | – | – | – | – | 3.24 µM | 0.58 µM | 2.55 µM | – | – | – | CNC(=O)c1ccc(NCC#Cc2cc3c(N[C@@H]4CCN(C)C[C@@H]4F)cccc3n2CC(F)(F)F)c(OC)c1 [Reference compound, reference compound] | – | – | –
